Reference: publication PMC5814268, “Antitumor activity of HPA3P through RIPK3-dependent regulated necrotic cell death in colon cancer” (Oncotarget, 2018)

How the values were obtained:
Assay type in all cases: cell-based, human
[1] = system: cleaved-caspase 3 and cleaved-PARP; assay: Western blot for apoptosis markers in colon cancer cell lines; conditions: whole-cell lysates, 24 h, staurosporine as positive control, Figure 1C
Method: The cells were plated in 6-well plates at a density of 1 × 10^6 cells per well. After incubating overnight, the cells were treated with HPA3P at the indicated concentration. After incubating for 6 h or 24 h, the cells were scraped, and the proteins were quantified by the Bradford method. The proteins were resolved on SDS-PAGE and transferred to PVDF membranes (Millipore, Bedford, USA). The blots were blocked with TBST containing 5% skim milk for 1 h, after which the membranes were incubated overnight at 4°C with primary antibodies against cleaved caspase-3 (#9664), PARP (#9542, Cell Signaling Technology, MA, USA), HMGB1 (ab18256, Abcam, Cambridge, UK), and GAPDH (SC-25778, Santa Cruz, CA, USA). The blots were then washed with TBST buffer and incubated with a secondary horseradish peroxidase-conjugated antibody (Santa Cruz, CA, USA). The reaction was detected using a Clarity™ Western ECL Substrate (BioRad, CA, USA).

HCT116 p53+/+ cells [2] = assay: MTT assay, HCT116 p53+/+; conditions: for restoration of cell viability in HPA3P-treated cells: pretreated with 30 μM Nec-1s or 3 μM GSK΄872 for 2 h, then HPA3P, Figure 5B-5C
Method: The cell lysates were analysed for RIPK1 and RIPK3 expression by western blotting. […] The cells were subsequently treated with HPA3P. HPA3P-induced cytotoxicity was measured by MTT assay. […] The cell lysates were analysed by western blot analysis. […] The cells were stained with PI for flow cytometric analysis. (F) The cells were treated with 30 μM HPA3P for the indicated times. RIPK3 expression was analysed by western blotting. […] Cell viability was measured by MTT assay. ^*p < 0.05, ^**p < 0.01 indicate a significant difference between the indicated groups. NS, not significant. (H) The colon cancer cell lysates used in this study were analysed by western blotting. (I) Schematic diagram of HPA3P-induced necroptosis.
(§1) The cells were plated in 96-well plates at a density of 2 × 10^4 cells per well. After incubating overnight, the cells were treated with HPA3, HPA3P, HPA3P2, oxaliplatin, and 5-FU at various concentrations. After the cells had incubated for 6 h or 24 h, the culture medium was replaced with fresh medium. Twenty microlitres of a 5 mg/ml stock solution of 3-(4,5-dimetylthiazol-2-yl)-2,5-diphenyltetrazolium bromide (Sigma Aldrich) was added to each well, and the cells were incubated for 1 h at 37°C in a humidified atmosphere of 5% CO2. After removal of the supernatant, 100 μl of DMSO was added to each well. The plates were subsequently incubated on a horizontal shaker for 20 min at room temperature, and the optical density was measured at an absorbance of 570 nm using a microplate reader (SPECTRA MAX PLUS, Molecular Devices, CA, USA).

RIPK3 = RIPK3 expression, western blot in HCT116 p53+/+ cells; conditions: 3 μM GSK΄872 pretreatment, Figure 5C
Method: Figure 5 Low concentrations of HPA3P induce RIPK3-dependent necroptosis in HCT116 p53^+/+ cells (A) HCT116 p53^+/+ cells were treated with HPA3P for 6 h. The cell lysates were analysed for RIPK1 and RIPK3 expression by western blotting. The cells were pretreated with 30 μM Nec-1s (B) or 3 μM GSK΄872 (C) for 2 h and (D) transfected with negative-control (scramble), RIPK1, RIPK3, and MLKL siRNA for 24 h. The cells were subsequently treated with HPA3P. HPA3P-induced cytotoxicity was measured by MTT assay. (B–D) The cells were treated with Nec-1s or GSK΄872, and transfected with siRNA for 24 h. The cell lysates were analysed by western blot analysis. (E) The cells were treated with 3 μM GSK΄872 for 2 h and subsequently treated with 30 μM HPA3P for 6 h. The cells were stained with PI for flow cytometric analysis. […] RIPK3 expression was analysed by western blotting. […] Cell viability was measured by MTT assay. ^*p < 0.05, ^**p < 0.01 indicate a significant difference between the indicated groups. […] (H) The colon cancer cell lysates used in this study were analysed by western blotting. […]
The cells were plated in 6-well plates at a density of 1 × 10^6 cells per well. […] After incubating for 6 h or 24 h, the cells were scraped, and the proteins were quantified by the Bradford method. […] The reaction was detected using a Clarity™ Western ECL Substrate (BioRad, CA, USA). […]

HCT116 p53+/+ cells [3] = assay: PI staining analysed by flow cytometry, HCT116 p53+/+; conditions: 3 μM GSK΄872 for 2 h and/or 30 μM HPA3P for 6 h, Figure 5E
Method: Figure 3 HPA3P-induced necrosis and morphological changes in human colon cancer cell lines All cell lines were treated with HPA3P for 30 min and then stained with Hoechst 33342/PI or PI alone. (A) Pictures of Hoechst 33342/PI-stained cells were taken using an Olympus IX71 fluorescence microscope (magnification LCAch N 20X). (B) PI-stained cells were analysed by flow cytometry. (C) Morphological changes in colon cancer cells treated with HPA3P for 5 min were observed using an Olympus IX71 light microscope (magnification LUCPlaFL N 40X). The black arrows indicate membrane blebs. […] Morphological changes were observed under an Olympus IX71 fluorescence microscope (magnification LUCPlaFL N 40X). […]
Figure 5 Low concentrations of HPA3P induce RIPK3-dependent necroptosis in HCT116 p53^+/+ cells (A) HCT116 p53^+/+ cells were treated with HPA3P for 6 h. The cell lysates were analysed for RIPK1 and RIPK3 expression by western blotting. […] HPA3P-induced cytotoxicity was measured by MTT assay. […] The cell lysates were analysed by western blot analysis. […] RIPK3 expression was analysed by western blotting. […] Cell viability was measured by MTT assay. ^*p < 0.05, ^**p < 0.01 indicate a significant difference between the indicated groups. […] (H) The colon cancer cell lysates used in this study were analysed by western blotting. […]

SW480 cells = assay: MTT assay, SW480; conditions: SW480, 24 h, Figure 4E
Method: as §1

LoVo cells = assay: MTT assay, LoVo; conditions: 24 h, Figure 4E
Method: as §1

HT-29 cells = assay: MTT assay, HT-29; conditions: HT-29, 24 h, Figure 4E
Method: as §1

colon cancer cell lines = assay: MTT assay, cell viability in colon cancer cell lines; conditions: comparison of HPA3P with anticancer drugs
Method: as §1

With CN[C@@H]1C[C@H]2O[C@@](C)([C@@H]1OC)n1c3ccccc3c3c4c(c5c6ccccc6n2c5c31)C(=O)NC4 [staurosporine] the “cleaved-caspase 3 and cleaved-PARP” value [1] was “detected”.

CC(C)S(=O)(=O)c1ccc2nccc(Nc3ccc4scnc4c3)c2c1 [GSK΄872] was tested, and the “protective effect on HPA3P-mediated cytotoxicity” value (HCT116 p53+/+ cells [2]; pretreated with 3 μM GSK΄872 for 2 h, then HPA3P for 24 h, Figure 5G) was “inhibited HPA3P-induced cytotoxicity”, the “restoration of cell viability in HPA3P-treated cells” value (HCT116 p53+/+ cells [2]) was “restored cell viability” and the “effect on HPA3P-induced increases in RIPK3 expression” value (RIPK3) was “inhibited”. For the same molecule, the “PI staining, gate P1” value (HCT116 p53+/+ cells [3]) was 91.47% and the “PI staining, gate P2” value (HCT116 p53+/+ cells [3]) was 7.34%.

O=C1[O][Pt]2([NH][C@@H]3CCCC[C@H]3[NH]2)[O]C1=O [oxaliplatin, Oxaliplatin] was tested, and the cell viability (SW480 cells) was “significant decrease in cell viability”, the cell viability (HCT116 p53+/+ cells [2]; 24 h, Figure 4E) was “significant decrease in cell viability” and the cell viability (LoVo cells) was “significant decrease in cell viability”. The cell viability (HT-29 cells) was “reduced cell viability only slightly” and the cell viability (colon cancer cell lines; 6 h, Figure 4D) was “no effect on cell viability”.

For CN1C(=O)NC(Cc2c[nH]c3c(Cl)cccc23)C1=O (centres unmarked) [Nec-1s], the “restoration of cell viability in HPA3P-treated cells” value (HCT116 p53+/+ cells [2]) was “did not restore cell viability”.

O=c1[nH]cc(F)c(=O)[nH]1 [5-FU] was tested, and the cell viability (colon cancer cell lines; 6 h, Figure 4D) was “no effect on cell viability” and the cell viability (colon cancer cell lines; 24 h, Figure 4E) was “no effect on cell viability”.
